Results: patent US20130101996A1, “DETECTION METHOD AND APPARATUS OF ACTIVATED NEUTROPHILS” (SYSMEX CORPORATION, priority 2011, published 2013)

Key:
Assay type in all cases: cell-based, human
neutrophils [1] = test: Transmission electron microscope observation of stimulated neutrophils; settings: PMA or fMLP added, fixed by 2.5% glutaraldehyde
Procedure: A sample containing activated neutrophils is prepared from peripheral blood extracted from an able-bodied person in the same manner as in Example 1. Also, a sample not treated by a stimulating substance is prepared as a control sample.
The samples are fixed by 2.5% glutaraldehyde to prepare electron microscope samples according to the method described in the literature by the inventors (Mari Kono et al. (2009), ‘Morphological definition of CD71 positive reticulocytes by various staining techniques and electron microscopy compared to reticulocytes detected by an automated hematology analyzer’, Clinica Chimica Acta, Vol. 404, p105-110.). The obtained samples are analyzed by using a transmission electron microscope (Hitachi H-7500).

[2] = test system: neutrophils in whole blood; test: Whole blood measured by automated blood cell counter XE-2100, DIFF scattergram of 4DS-SSC; settings: PMA 0.32 nM, room temperature 10 min; whole blood (EDTA-2K)
Procedure: Peripheral blood is extracted from an able-bodied person by using a blood collection tube containing EDTA-2K for hematologic examination. PMA (manufactured by Sigma-Aldrich Co., LLC.) (final concentration: 0.32 nM) is added to the obtained blood, which is left still at room temperature for 10 min. Whole blood to which PMA is not added is used as a control sample.
The prepared sample is supplied to the automated blood cell counter XE-2100 (manufactured by Sysmex Corporation) for measurement to acquire a DIFF scattergram of 4DS-SSC. The automated blood cell counter XE-2100 automatically treats the sample prepared as described above by using Stromatolyser-4DL and Stromatolyser-4DS (manufactured by Sysmex Corporation) to prepare a measurement sample.

neutrophils [3] = test: Confocal laser microscope observation of APF fluorescence (ROS production) in stimulated neutrophils; settings: PMA as stimulating substance, APF 10 μM; confocal laser microscopes
Procedure: A sample containing activated neutrophils is prepared from peripheral blood extracted from an able-bodied person in the same manner as in Example 1. However, only PMA is used as a stimulating substance of neutrophils. A sample (−APF) not treated by APF and a stimulating substance and a sample (+APF) not treated by a stimulating substance are prepared as control samples.
Each prepared sample is moved to a glass bottom dish coated with poly-L-lysine to observe neutrophils in the sample by confocal laser microscopes (IX81 (manufactured by Olympus Corporation), CSU-X1 (manufactured by Yokogawa Electric Corporation), and ImagEM (manufactured by Hamamatsu Photonics K. K.)).

neutrophils [4] = test: Flow cytometry (FACSCalibur) of stimulated polymorphonucleocytes, 4DS-SSC scattergram; settings: PMA 0.32 nM or fMLP 50 nM, room temperature 10 min; versus non-stimulated control
Procedure: Peripheral blood is extracted from an able-bodied person by using a heparin blood collection tube for hematologic examination. A polynuclear sample of purity 90% or more is obtained by centrifugation of the obtained blood using a monopolymer separation solution (Dainippon Sumitomo Pharma Co., Ltd.) at room temperature. This operation is performed according to instructions of the manufacturer (Dainippon Sumitomo Pharma Co., Ltd.). Then, the obtained polymorphonucleocytes (2×10^5) are suspended in a 1 mL of 0.1% bovine serum albumin (phosphate buffered saline). To stain neutrophils of polymorphonucleocytes, CD16 (antihuman CD16 Fc gamma receptor III (clone: DJ130c).mouse monoclonal antibody/neutrophil specific antibody for RPE labeled flow cytometry; Dako) (final concentration: 750 μg/L) fluorescence-labeled by phycoerythrin (PE) is added to the obtained suspension for incubation at room temperature for 10 min. Next, APF (Aminophenyl Fluorescein, Sekisui Medical Co., Ltd.) (final concentration: 10 μM) as a reagent for ROS detection is added to the suspension, which is left still at room temperature for 30 min. […]

Compound | changes of form of neutrophils (degranulation, vacuole in cytoplasm) (neutrophils [1]) | appearance of activated neutrophils in 4DS-SSC scattergram, whole blood [2] | ROS production capability of neutrophils (APF derived fluorescence) (neutrophils [3]) | appearance region of neutrophils in 4DS-SSC scattergram (neutrophils [4])
CCCCCCCCCCCCCC(=O)O[C@@H]1[C@@H](C)[C@@]2(O)[C@@H](C=C(CO)C[C@]3(O)C(=O)C(C)=C[C@@H]23)[C@@H]2C(C)(C)[C@]12OC(C)=O [PMA, Phorbol 12-myristate 13-acetate] | many neutrophils in which degranulation and vacuole are produced in cytoplasm are observed | activated neutrophils appear between a cluster containing neutrophils and a cluster containing eosinophils | enhanced | neutrophils appear on other regions
N-Formyl-Met-Leu-Phe [fMLP] | many neutrophils in which degranulation and vacuole are produced in cytoplasm are observed | – | – | neutrophils appear on other regions
